In general, efflux ratio refers to the permeability from basolateral to apical divided by that in the opposite direction, in the common usage.

For the data set, the target named is MDR1A (P-glycoprotein, ABCB1) (Mus musculus, UniProt P21447). The experiment in a line: Activity of mouse MDR1A expressed in pig LLC-PK1 cells assessed as efflux ratio of permeability from basolateral to apical side to apical to basolateral side at 1 uM after 2 hrs. Format: ADME, cell-based.
MDR1A (P-glycoprotein, ABCB1), sequence (P21447 whole entry): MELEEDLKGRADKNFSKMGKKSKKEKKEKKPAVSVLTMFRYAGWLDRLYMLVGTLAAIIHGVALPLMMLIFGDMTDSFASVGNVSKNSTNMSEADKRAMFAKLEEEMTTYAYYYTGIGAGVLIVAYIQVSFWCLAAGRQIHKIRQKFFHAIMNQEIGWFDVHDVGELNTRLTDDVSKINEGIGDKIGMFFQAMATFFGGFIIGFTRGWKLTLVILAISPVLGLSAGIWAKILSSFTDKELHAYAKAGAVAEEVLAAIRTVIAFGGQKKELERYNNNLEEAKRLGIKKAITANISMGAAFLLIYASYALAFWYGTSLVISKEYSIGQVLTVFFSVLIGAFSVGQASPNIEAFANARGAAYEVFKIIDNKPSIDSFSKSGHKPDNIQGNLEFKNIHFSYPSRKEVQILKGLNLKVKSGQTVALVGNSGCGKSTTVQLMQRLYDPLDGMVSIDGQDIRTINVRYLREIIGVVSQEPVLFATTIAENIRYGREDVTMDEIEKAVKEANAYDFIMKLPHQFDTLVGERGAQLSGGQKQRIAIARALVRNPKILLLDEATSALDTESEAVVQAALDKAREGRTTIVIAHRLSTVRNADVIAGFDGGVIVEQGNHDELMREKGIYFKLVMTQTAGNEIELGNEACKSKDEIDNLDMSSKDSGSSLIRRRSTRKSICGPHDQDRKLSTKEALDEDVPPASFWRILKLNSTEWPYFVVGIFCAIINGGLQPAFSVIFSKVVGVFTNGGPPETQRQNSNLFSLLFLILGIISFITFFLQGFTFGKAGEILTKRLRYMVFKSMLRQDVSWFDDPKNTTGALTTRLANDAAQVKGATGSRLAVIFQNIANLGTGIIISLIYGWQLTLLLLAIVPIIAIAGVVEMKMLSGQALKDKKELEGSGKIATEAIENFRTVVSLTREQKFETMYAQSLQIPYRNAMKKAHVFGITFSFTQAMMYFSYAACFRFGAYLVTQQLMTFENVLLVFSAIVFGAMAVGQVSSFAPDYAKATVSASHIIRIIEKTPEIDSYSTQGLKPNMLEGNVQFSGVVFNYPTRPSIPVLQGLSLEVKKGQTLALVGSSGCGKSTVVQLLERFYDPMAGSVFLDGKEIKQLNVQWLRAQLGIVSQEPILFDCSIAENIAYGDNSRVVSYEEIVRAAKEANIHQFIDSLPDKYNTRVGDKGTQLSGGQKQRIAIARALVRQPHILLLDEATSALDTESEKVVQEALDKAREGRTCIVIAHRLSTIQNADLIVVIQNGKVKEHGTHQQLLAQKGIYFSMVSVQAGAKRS

On to `CN(C)C(=O)C(CCN1CCC(O)(c2ccc(Cl)cc2)CC1)(c1ccccc1)c1ccccc1.Cl` [LOPERAMIDE HYDROCHLORIDE], for which the efflux ratio at 2 h, 1 µM amounted to 9.
